Experimental findings from article PMC2288882 (The Journal of Cell Biology, 1991) are described below.

Broadly, the IC50 is the midpoint of a concentration-inhibition curve.

Format in all cases: binding
Assay [1] has as its target native Torpedo AChR (all four subunits) (Tetronarce californica, UniProt P02710+P02714+P02718). As to conditions: extracts of oocytes expressing all four AChR subunits; Fig. 1 A.
Assay [2] concerns the target Torpedo AChR αγ subunit combination (Tetronarce californica, UniProt P02710+P02714). The assay is described as follows: biochemical.
Assay [3] addresses Torpedo AChR αδ subunit combination (Tetronarce californica, UniProt P02710+P02718). Nature of the assay: biochemical.

Sequence of Torpedo AChR αδ subunit combination (P02718 22-522): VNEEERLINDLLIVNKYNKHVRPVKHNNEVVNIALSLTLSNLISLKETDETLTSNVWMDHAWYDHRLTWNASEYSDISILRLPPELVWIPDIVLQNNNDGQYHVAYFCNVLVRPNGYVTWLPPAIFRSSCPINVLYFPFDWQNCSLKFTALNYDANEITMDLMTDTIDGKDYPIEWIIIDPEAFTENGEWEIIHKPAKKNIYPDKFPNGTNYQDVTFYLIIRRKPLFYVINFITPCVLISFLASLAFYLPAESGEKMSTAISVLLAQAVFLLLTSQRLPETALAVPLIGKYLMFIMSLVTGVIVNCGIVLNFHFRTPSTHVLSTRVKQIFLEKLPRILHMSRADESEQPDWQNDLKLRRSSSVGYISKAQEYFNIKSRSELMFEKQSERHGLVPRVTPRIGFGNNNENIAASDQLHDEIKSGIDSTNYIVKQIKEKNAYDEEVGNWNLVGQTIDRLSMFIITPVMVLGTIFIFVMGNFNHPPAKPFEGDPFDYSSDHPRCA
Sequence of Torpedo AChR αδ subunit combination (P02710 25-461): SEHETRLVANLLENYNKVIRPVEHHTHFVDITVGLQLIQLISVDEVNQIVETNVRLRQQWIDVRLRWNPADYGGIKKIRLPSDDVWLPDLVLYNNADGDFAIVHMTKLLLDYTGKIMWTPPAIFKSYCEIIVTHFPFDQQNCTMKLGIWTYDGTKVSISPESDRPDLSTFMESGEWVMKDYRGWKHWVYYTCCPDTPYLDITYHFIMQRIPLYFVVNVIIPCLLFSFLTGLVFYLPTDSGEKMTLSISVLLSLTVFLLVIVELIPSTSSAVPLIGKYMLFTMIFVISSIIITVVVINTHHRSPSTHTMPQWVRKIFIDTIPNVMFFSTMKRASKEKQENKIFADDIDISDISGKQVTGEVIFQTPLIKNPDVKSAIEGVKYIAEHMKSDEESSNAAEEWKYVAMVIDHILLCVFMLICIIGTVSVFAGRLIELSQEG
Sequence of native Torpedo AChR (all four subunits) (P02710 25-461): as above
Sequence of native Torpedo AChR (all four subunits) (P02712 25-493, further chain): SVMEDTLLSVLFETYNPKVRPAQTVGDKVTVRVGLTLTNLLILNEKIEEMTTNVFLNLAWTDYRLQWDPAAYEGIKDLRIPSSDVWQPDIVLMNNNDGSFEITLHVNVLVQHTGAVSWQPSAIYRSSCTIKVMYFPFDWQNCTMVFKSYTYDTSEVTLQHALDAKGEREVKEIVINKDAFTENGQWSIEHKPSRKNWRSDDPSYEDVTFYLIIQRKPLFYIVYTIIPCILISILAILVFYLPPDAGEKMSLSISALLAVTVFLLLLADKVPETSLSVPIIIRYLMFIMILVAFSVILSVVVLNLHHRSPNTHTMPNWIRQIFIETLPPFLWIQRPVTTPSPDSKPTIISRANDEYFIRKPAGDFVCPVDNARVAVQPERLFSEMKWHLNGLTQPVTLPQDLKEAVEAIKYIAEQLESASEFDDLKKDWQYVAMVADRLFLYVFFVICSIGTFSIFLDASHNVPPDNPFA
Sequence of native Torpedo AChR (all four subunits) (P02718 22-522): as the sequence (P02718 22-522) above
Sequence of native Torpedo AChR (all four subunits) (P02714 18-506): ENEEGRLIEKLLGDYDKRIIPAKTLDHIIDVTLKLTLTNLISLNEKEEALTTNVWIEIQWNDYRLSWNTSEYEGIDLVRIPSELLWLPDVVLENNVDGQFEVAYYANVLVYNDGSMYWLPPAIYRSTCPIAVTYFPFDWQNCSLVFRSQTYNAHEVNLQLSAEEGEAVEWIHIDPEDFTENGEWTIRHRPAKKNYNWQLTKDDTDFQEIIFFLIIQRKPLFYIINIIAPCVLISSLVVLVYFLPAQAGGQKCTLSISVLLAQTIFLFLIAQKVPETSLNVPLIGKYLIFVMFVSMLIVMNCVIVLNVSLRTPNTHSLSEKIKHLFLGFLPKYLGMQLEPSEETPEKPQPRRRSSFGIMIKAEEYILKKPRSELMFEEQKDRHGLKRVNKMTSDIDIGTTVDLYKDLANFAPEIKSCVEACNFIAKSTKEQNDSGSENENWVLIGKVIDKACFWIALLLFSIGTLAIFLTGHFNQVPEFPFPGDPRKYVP
Sequence of Torpedo AChR αγ subunit combination (P02710 25-461): as the sequence (P02710 25-461) above
Sequence of Torpedo AChR αγ subunit combination (P02714 18-506): as the sequence (P02714 18-506) above

With `COc1cc2c3cc1Oc1cc(ccc1O)C[C@@H]1c4c(cc(OC)c(O)c4Oc4ccc(cc4)C[C@@H]3N(C)CC2)CC[N+]1(C)C` [curare], the “shape of curare inhibition curve of αBgt binding” value in assay [1] was “biphasic curve”. Moreover, the results for the IC50 in assay [2] and in assay [3] were around 20 µM and 200 µM, respectively.
